{
  "source": "patent US20250101129A1",
  "about": "“AFFINITY SUBSTANCE, COMPOUND, AND ANTIBODY AND THEIR SALTS” (Ajinomoto Co., Inc., priority 2022, published 2025)",
  "test_system": "CD3-activated human T cells containing PD-1-positive cells",
  "assay": "Flow cytometry binding to CD3-activated human T cells",
  "format": "cell-based",
  "settings": "primary antibody final concentration 20 g/mL as printed, Alexa Fluor 488 anti-human IgG secondary",
  "method": "The cells used were CD3-activated human T cells containing HER2-positive SKBR-3 cells, EGFR-positive A-431 cells, and PD-1-positive cells.\n200,000 cells cultured in D-MEM medium (Thermo Fisher Scientific, Inc.) supplemented with 10% FBS (Thermo Fisher Scientific, Inc.) were collected, and 20 μL of PBS containing Human TruStain FcX (Biolegend) was added, followed by blocking of Fc receptors on ice for 10 minutes. The primary antibody reaction was performed by adding the above-described antibodies as primary antibodies to a cell staining buffer (PBS containing 1% FBS) to a final concentration of 20 g/mL, adding 20 μL of the mixtures to the cells, and incubating them for 20 minutes on ice. The cells after the primary antibody reaction were washed twice with the cell staining buffer. The second antibody reaction was performed by adding 40 μL of Goat anti-Human IgG (H+L) Cross-Adsorbed Secondary Antibody, Alexa Fluor™488 (Thermo Fisher Scientific, Inc.) diluted with the cell staining buffer to 10 g/mL as the second antibody to the cells, and incubating the cells on ice for 20 minutes. The cells were washed twice with the cell staining buffer, and then subjected to analysis using Attune NxT Flow Cytometer (Thermo Fisher Scientific, Inc.).",
  "data": [
    {"substance": "pembrolizumab", "values": [
      {"measurement": "cells in which fluorescence was observed (positive rate), CD3-activated human T cells", "result": "about 23%"}
    ]}
  ]
}
